For experiment [1], the system named is soybean. Nature of the experiment: Test E preemergence herbicide test. It counts as in vivo, Glycine max. On the set-up: key: 0 = no effect, 100 = complete control. The text has this:
(§1) Seeds of plant species selected from corn (Zea mays), soybean (Glycine max), velvetleaf (Abutilon theophrasti), lambsquarters (Chenopodium album), wild poinsettia (Euphorbia heterophylla), pigweed, palmer (palmer pigweed, Amaranthus palmeri), waterhemp (common waterhemp, Amaranthus rudis), surinam grass (Brachiaria decumbens), crabgrass, large (large crabgrass, Digitaria sanguinalis), crabgrass, Brazil (Brazilian crabgrass, Digitaria horizontalis), panicum, fall (fall panicum, Panicum dichotomiflorum), foxtail, giant (giant foxtail, Setaria faberii), foxtail, green (green foxtail, Setaria viridis), goosegrass (Eleusine indica), johnsongrass (Sorghum halepense), ragweed (common ragweed, Ambrosia elatior), barnyardgrass (Echinochloa crus-galli), sandbur (southern sandbur, Cenchrus echinatus), arrowleaf […] rhombifolia), ryegrass, Italian (Italian ryegrass, Lolium multiflorum), dayflower, VA (Virginia dayflower, Commelina virginica), field bindweed (Convolvulus arvensis), morningglory (Ipomoea coccinea), nightshade (eastern black nightshade, Solanum ptycanthum), kochia (Kochia scoparia), nutsedge, yellow (yellow nutsedge, Cyperus esculentus), cocklebur (common cocklebur, Xanthium strumarium), smartweed (ladysthumb smartweed, Polygonum Persicaria) and beggarticks (hairy beggarticks, Bidens pilosa), were planted into a silt loam soil and treated preemergence with test chemicals formulated in a non-phytotoxic solvent mixture which included a surfactant. Treated plants and controls were maintained in a greenhouse for 21 days, after which time all species were compared to controls and visually evaluated. Plant response ratings, summarized in Table E, are based on a scale of 0 to 100 where 0 is no effect and 100 is complete control. A dash (-) response means no test result.

The test system of experiment [2] is waterhemp. Nature of the experiment: Test E preemergence herbicide test. It is filed as in vivo, Amaranthus rudis. On the set-up: key: 0 = no effect, 100 = complete control.
Description: as §1

The subject of experiment [3] is foxtail, giant. Nature of the experiment: Test E preemergence herbicide test. It is filed as in vivo, Setaria faberii. Also noted: key: 0 = no effect, 100 = complete control.
Description: as §1

Experiment [4] deals with chickweed. Nature of the experiment: Test D pre-/postemergence herbicide test. It counts as in vivo, Stellaria media. Particulars: for Plant response rating: Chickweed, scale 0 to 100; for Plant response rating, Chickweed: scale 0 to 100 (0 no effect, 100 complete control). Put shortly:
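Postemergence sprays were made on plants at the 1- to 4-leaf stage in peat-based medium, and preemergence sprays on seeds planted in silt loam. The formulation was a non-phytotoxic solvent mixture containing surfactant. Plants were compared with controls after 7 to 21 days and rated visually on a 0–100 scale.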

In experiment [5] the test system is kochia. Nature of the experiment: Test E preemergence herbicide test. It is filed as in vivo, Kochia scoparia. On the set-up: key: 0 = no effect, 100 = complete control.
Description: as §1

For the molecule `O=C1NCC(c2ccc(C(F)(F)F)cc2)C1C(=O)Nc1cccc(F)c1F` (racemic) [Compound 202], the “Plant response rating, Soybean” value in experiment [1] (31 g ai/ha), in experiment [1] (62 g ai/ha), in experiment [1] (125 g ai/ha) and in experiment [1] (250 g ai/ha) was 0 throughout. The “Plant response rating, Waterhemp” value in experiment [2] (31 g ai/ha) was determined as 50; in experiment [2] (62 g ai/ha) it was 60; in experiment [2] (125 g ai/ha), 95; in experiment [2] (250 g ai/ha), 95. The “Plant response rating, Foxtail, Giant” value in experiment [3] (31 g ai/ha) was 35; in experiment [3] (62 g ai/ha), 50; in experiment [3] (125 g ai/ha), 95; in experiment [3] (250 g ai/ha), 98. Further, the Plant response rating in experiment [4] (Postemergence, 31 g ai/ha) stood at 75; in experiment [4] (Postemergence, 62 g ai/ha), 75; in experiment [4] (Postemergence, 125 g ai/ha), 80; in experiment [4] (Postemergence, 250 g ai/ha), 80; in experiment [4] (Preemergence, 125 g ai/ha), 90; in experiment [4] (Preemergence, 250 g ai/ha) it was 95. Further, the “Plant response rating, Chickweed” value in experiment [4] (Preemergence, 62 g ai/ha) is 80; in experiment [4] (Preemergence, 31 g ai/ha), 45. Further, the “Plant response rating, Kochia” value in experiment [5] (31 g ai/ha) was 95; in experiment [5] (62 g ai/ha), 95; in experiment [5] (125 g ai/ha), 95; in experiment [5] (250 g ai/ha) it was 98.

Turning to `O=C1NCC(c2ccc(OC(F)F)cc2)C1C(=O)Nc1cccc(F)c1F` (racemic) [Compound 350], the “Plant response rating, Soybean” value in experiment [1] (31 g ai/ha), in experiment [1] (62 g ai/ha), in experiment [1] (125 g ai/ha) and in experiment [1] (250 g ai/ha) was 0 throughout. Moreover, the “Plant response rating, Waterhemp” value in experiment [2] (31 g ai/ha) amounted to 0; in experiment [2] (62 g ai/ha) it was 0; in experiment [2] (125 g ai/ha), 0; in experiment [2] (250 g ai/ha) it was 35. Moreover, the “Plant response rating, Foxtail, Giant” value in experiment [3] (31 g ai/ha) is listed as 0; in experiment [3] (62 g ai/ha), 20; in experiment [3] (125 g ai/ha), 50; in experiment [3] (250 g ai/ha), 80. Moreover, the “Plant response rating, Kochia” value was 0 in experiment [5] (31 g ai/ha), 40 in experiment [5] (62 g ai/ha), 75 in experiment [5] (125 g ai/ha) and 90 in experiment [5] (250 g ai/ha).

For `O=C1NCC(c2ccc(C(F)(F)F)cc2)C1C(=O)Nc1cccc(F)c1F` (stereo not drawn) [Compound 80, N-(2,3-difluorophenyl)-2-oxo-4-[4-(trifluoromethyl)phenyl]-3-pyrrolidinecarboxamide], the “Plant response rating, Soybean” value came to 0 in experiment [1] (16 g ai/ha); 0 in experiment [1] (31 g ai/ha); 0 in experiment [1] (62 g ai/ha); 0 in experiment [1] (125 g ai/ha); 40 in experiment [1] (250 g ai/ha). Further, the “Plant response rating, Waterhemp” value amounted to 0 in experiment [2] (16 g ai/ha); 20 in experiment [2] (31 g ai/ha); 30 in experiment [2] (62 g ai/ha); 50 in experiment [2] (125 g ai/ha); 60 in experiment [2] (250 g ai/ha). Besides, the “Plant response rating, Foxtail, Giant” value in experiment [3] (16 g ai/ha) is reported as 0; in experiment [3] (31 g ai/ha), 65; in experiment [3] (62 g ai/ha), 75; in experiment [3] (125 g ai/ha), 80; in experiment [3] (250 g ai/ha), 90. In addition, the Plant response rating in experiment [4] (Postemergence, 31 g ai/ha) came out at 35; in experiment [4] (Postemergence, 62 g ai/ha), 45; in experiment [4] (Postemergence, 125 g ai/ha), 85; in experiment [4] (Postemergence, 250 g ai/ha), 85; in experiment [4] (Preemergence, 125 g ai/ha), 100; in experiment [4] (Preemergence, 250 g ai/ha), 100. Besides, the “Plant response rating, Chickweed” value is on record as 100 in experiment [4] (Preemergence, 62 g ai/ha) and 85 in experiment [4] (Preemergence, 31 g ai/ha). Also, the “Plant response rating, Kochia” value amounted to 60 in experiment [5] (31 g ai/ha), 60 in experiment [5] (62 g ai/ha), 80 in experiment [5] (125 g ai/ha) and 90 in experiment [5] (250 g ai/ha).

`O=C1NC[C@H](c2cccc(C(F)(F)F)c2)[C@H]1C(=O)Nc1ccccc1F` [Compound 204, (3R,4S)—N-(2-fluorophenyl)-2-oxo-4-[3-(trifluoromethyl)phenyl]-3-pyrrolidinecarboxamide]: the “Plant response rating, Soybean” value in experiment [1] (31 g ai/ha), in experiment [1] (62 g ai/ha) and in experiment [1] (125 g ai/ha) was 0 in each case. The “Plant response rating, Waterhemp” value in experiment [2] (31 g ai/ha), in experiment [2] (62 g ai/ha), in experiment [2] (125 g ai/ha) and in experiment [2] (250 g ai/ha) was 0 throughout. Besides, the “Plant response rating, Foxtail, Giant” value was found to be 50 in experiment [3] (31 g ai/ha), 95 in experiment [3] (62 g ai/ha), 95 in experiment [3] (125 g ai/ha) and 98 in experiment [3] (250 g ai/ha). The “Plant response rating, Chickweed” value in experiment [4] (Preemergence, 62 g ai/ha) is listed as 100; in experiment [4] (Preemergence, 125 g ai/ha), 100; in experiment [4] (Preemergence, 31 g ai/ha), 100. In experiment [4] (Preemergence, 250 g ai/ha), this molecule showed a Plant response rating of 100. The “Plant response rating, Kochia” value is 0 in experiment [5] (31 g ai/ha), 0 in experiment [5] (62 g ai/ha), 90 in experiment [5] (125 g ai/ha) and 40 in experiment [5] (250 g ai/ha).

Turning to `O=C1NC[C@H](c2cccc(C(F)(F)F)c2)[C@H]1C(=O)Nc1cccc(F)c1F` [Compound 206], the “Plant response rating, Soybean” value in experiment [1] (31 g ai/ha), in experiment [1] (62 g ai/ha), in experiment [1] (125 g ai/ha) and in experiment [1] (250 g ai/ha) was 0 in each case. Also, the “Plant response rating, Waterhemp” value in experiment [2] (31 g ai/ha), in experiment [2] (125 g ai/ha) and in experiment [2] (250 g ai/ha) was 50 in each case. For the same molecule, the “Plant response rating, Foxtail, Giant” value in experiment [3] (31 g ai/ha) is listed as 90; in experiment [3] (62 g ai/ha), 98; in experiment [3] (125 g ai/ha), 98; in experiment [3] (250 g ai/ha) it was 98. Besides, the “Plant response rating, Chickweed” value in experiment [4] (Preemergence, 62 g ai/ha) amounted to 100; in experiment [4] (Preemergence, 125 g ai/ha), 70; in experiment [4] (Preemergence, 31 g ai/ha), 30. This molecule had a Plant response rating in experiment [4] (Preemergence, 250 g ai/ha) of 95. Besides, the “Plant response rating, Kochia” value in experiment [5] (31 g ai/ha) is 0; in experiment [5] (62 g ai/ha), 0; in experiment [5] (125 g ai/ha), 50; in experiment [5] (250 g ai/ha), 80.

(Values after patent publication US10294202B2, “Pyrrolidinones as herbicides” (FMC Corporation, priority 2013, dated 2019).)
